Laboratory results from PMC10501649, “A detoxification pathway initiated by a nuclear receptor TcHR96h in Tetranychus cinnabarinus (Boisduval)” (PLOS Genetics, 2023).
pKd: −log10 of the molar value. Where two headings read alike, the source gives them in different places.

Legend:
[1] = biological target: TcHR96h (nuclear hormone receptor HR96h); assay: microscale thermophoresis (MST), supported by DARTs; R448A mutation reduces affinity […]; format: binding, Tetranychus cinnabarinus
[2] = biological target: TcHR96h (nuclear hormone receptor HR96h); assay: as above; format: binding, Tetranychus cinnabarinus; remark: listed apart in the source

Row | Structure (SMILES) | pKd [1] | pKd [2]
1 | COCCOC(=O)C(C#N)(C(=O)c1ccccc1C(F)(F)F)c1ccc(C(C)(C)C)cc1 (centres unmarked) [cyflumetofen] | 3.72 | –
2 | CC(C)(C)c1ccc(C(C#N)C(=O)c2ccccc2C(F)(F)F)cc1 (centres unmarked) [AB-1] | – | 3.86
